# Measured values taken from patent publication US10888622B2, “Nanocomplexes of modified peptides or proteins” (Trustees of Tufts College, priority 2013, dated 2021).
# Tested on: B16F10 cancer cells
# Experiment: In vitro protein transfection: delivery of RNase A into B16F10 cancer cells, cell viability by Alamar Blue assay
# Format: cell-based
# Method: Compositions A-D and Comparative Compositions A′-D′ and D″ were tested for delivery of RNase A into B16F10 cancer cells.
# B16F10 cancer cells were cultured in Dulbecco's Modified Eagle Medium supplemented with 10% Fetal Bovine Serum and 1% penicillin/streptomycin at 37° C. in the presence of 5% CO2. For the protein transfection assay described below, cells were seeded in 96-well plates at a density of 10,000 cells per well a day prior to transfection.
# To evaluate protein delivery efficiency, Compositions A-D and Comparative Compositions A′-D′ and D″ described in Examples 1-4 were added to B16F10 cancer cells and incubated at 37° C. for 24 hours. The protein concentration was 3.3 μg/mL in PBS. Compound EC16-63, dissolved in the same volume of PBS, was used as a control. The cell viability was determined by the Alamar Blue assay after 24 hours of incubation. All transfection studies were performed in quadruplicate.
smiles,measurement,setting,value
CCCCCCCCCCCCCCC(O)CN(C)CCCN(C)CC(O)CCCCCCCCCCCCCC (centres unmarked) [Compound EC16-63],"cell viability (lipid-like compound alone, control)","24 hours incubation, compound dissolved in same volume of PBS, no protein",90%
same,cytotoxicity (in words),"lipid-like compound alone, 24 hours",low cytotoxicity
